This assay deals with T1, human NK3 receptor (Homo sapiens, UniProt P29371).
T1 construct: expressed in transfected cells; host or cells: HEK293 cells (transient expression), membrane preparation
T1 sequence (P29371 1-465): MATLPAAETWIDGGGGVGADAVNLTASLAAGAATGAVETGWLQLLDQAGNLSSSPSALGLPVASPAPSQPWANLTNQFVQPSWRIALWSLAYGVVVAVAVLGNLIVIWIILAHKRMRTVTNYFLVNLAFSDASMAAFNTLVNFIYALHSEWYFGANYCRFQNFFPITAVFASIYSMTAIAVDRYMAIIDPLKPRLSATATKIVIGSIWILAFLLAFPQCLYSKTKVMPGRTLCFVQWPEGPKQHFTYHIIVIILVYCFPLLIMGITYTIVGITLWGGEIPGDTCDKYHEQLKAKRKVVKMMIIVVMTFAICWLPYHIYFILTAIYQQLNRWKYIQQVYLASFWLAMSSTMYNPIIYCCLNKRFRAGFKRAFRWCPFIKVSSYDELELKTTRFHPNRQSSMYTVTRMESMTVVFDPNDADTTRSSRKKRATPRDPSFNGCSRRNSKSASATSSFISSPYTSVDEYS
Description: [3H]SR142801 competition binding assay (hNK3 receptor binding). Conditions: [3H]SR142801 radioligand; membranes from HEK293 cells transiently expressing recombinant human NK3 receptor; Ki by Cheng-Prussoff; read-out: KiNK3 h. Here is the method: [^3H]SR^142801 Competition Binding Assay
hNK3 receptor binding experiment were performed using [^3H]SR^142801 (Catalog No. TRK1035, specific activity: 74.0 Ci/mmol, Amersham, GE Healthcare UK limited, Buckinghamshire, UK) and membrane isolated from HEK293 cells transiently expressing recombinant human NK3 receptor. After thawing, the membrane homogenates were centrifuged at 48,000×g for 10 min at 4° C., the pellets were resuspended in the 50 mM Tris-HCl, 4 mM MnCl2, 1 μM phosphoramidon, 0.1% BSA binding buffer at pH 7.4 to a final assay concentration of 5 μg protein/well. […] At the end of the incubation, membranes were filtered onto unitfilter (96-well white microplate with bonded GF/C filter preincubated 1 h in 0.3% PEI +0.3% BSA, Packard BioScience, Meriden, Conn.) with a Filtermate 196 harvester (Packard BioScience) and washed 4 times with ice-cold 50 mM Tris-HCl, pH 7.4 buffer. Nonspecific binding was measured in the presence of 10 μM SB222200 for both radioligands. The radioactivity on the filter was counted (5 min) on a Packard Top-count microplate scintillation counter with quenching correction after addition of 45 μl of microscint 40 (Canberra Packard S.A., Zutrich, Switzerland) and shaking for 1 h. Inhibition curves were fitted according to the Hill equation: y=100/(1+(x/IC50)^nH), where nH=slope factor using Excel-fit 4 software (Microsoft). IC50 values were derived from the inhibition curve and the affinity constant (Ki) values were calculated using the Cheng-Prussoff equation Ki=IC50/(1+[L]/KD) where [L] is the concentration of radioligand and KD is its dissociation constant at the receptor, derived from the saturation isotherm. All experiments were performed in duplicate and the mean ± standard error (SEM) of the individual Ki values was calculated.

In the case of `C[C@@H](Oc1ccc(Cl)cn1)[C@@H]1CN(C(=O)c2ccc(F)nc2)C[C@H]1c1ccc(Cl)c(Cl)c1` (racemic) [Example 14, [(3SR,4RS)-3-[(RS)-1-(5-Chloro-pyridin-2-yloxy)-ethyl]-4-(3,4-dichloro-phenyl)-pyrrolidin-1-yl]-(6-fluoro-pyridin-3-yl)-methanone], the Ki was 27.8 nM.
Then `C[C@H](Oc1ccc(C(F)(F)F)cn1)[C@H]1CN(C(=O)c2ccc(-n3cccn3)nc2)C[C@@H]1c1ccc(Cl)c(Cl)c1` (racemic) [Example 80, {(3SR,4RS)-3-(3,4-Dichloro-phenyl)-4-[(SR)-1-(5-trifluoromethyl-pyridin-2-yloxy)-ethyl]-pyrrolidin-1-yl}-(6-pyrazol-1-yl-pyridin-3-yl)-methanone], with 1.5 nM.
To `C[C@@H](Oc1ccc(Cl)cn1)[C@@H]1CN(C(=O)c2cnc(S(C)(=O)=O)nc2)C[C@H]1c1ccc(Cl)c(Cl)c1` (racemic) [Example 51, [(3SR,4RS)-3-[(RS)-1-(5-Chloro-pyridin-2-yloxy)-ethyl]-4-(3,4-dichloro-phenyl)-pyrrolidin-1-yl]-(2-methanesulfonyl-pyrimidin-5-yl)-methanone] belongs 78.7 nM.
In the case of `Cc1cc(C(=O)N2C[C@H]([C@H](C)Oc3ccc(C(F)(F)F)cn3)[C@@H](c3ccc(Cl)cc3)C2)cnn1` [Example 119, {(3S,4R)-3-(4-Chloro-phenyl)-4-[(S)-1-(5-trifluoromethyl-pyridin-2-yloxy)-ethyl]-pyrrolidin-1-yl}-(6-methyl-pyridazin-4-yl)-methanone], the Ki turned out to be 3 nM.
In the case of `C[C@H](Oc1ccc(C#N)cn1)[C@H]1CN(C(=O)c2ccc(C#N)cc2F)C[C@@H]1c1ccc(Cl)c(Cl)c1` (racemic) [Example 67, 6-{(SR)-1-[(3RS,4SR)-1-(4-Cyano-2-fluoro-benzoyl)-4-(3,4-dichloro-phenyl)-pyrrolidin-3-yl]-ethoxy}-nicotinonitrile], the Ki was 5.8 nM.
Consider `CSc1ccc(C(=O)N2C[C@@H]([C@@H](C)Oc3ccc(Cl)cn3)[C@H](c3ccc(Cl)c(Cl)c3)C2)cn1` (racemic) [Example 45, [(3SR,4RS)-3-[(RS)-1-(5-Chloro-pyridin-2-yloxy)-ethyl]-4-(3,4-dichloro-phenyl)-pyrrolidin-1-yl]-(6-methylsulfanyl-pyridin-3-yl)-methanone], for which the Ki stood at 7.3 nM.
`Cc1cc(C(=O)N2C[C@H]([C@H](CO)Oc3ccc(Cl)cn3)[C@@H](c3ccc(F)c(F)c3)C2)cnn1` [Example 116, [(3R,4S)-3-[(R)-1-(5-Chloro-pyridin-2-yloxy)-2-hydroxy-ethyl]-4-(3,4-difluoro-phenyl)-pyrrolidin-1-yl]-(6-methyl-pyridazin-4-yl)-methanone]: the Ki is 28 nM.
Then `C[C@H](Oc1ccc(C#N)cn1)[C@H]1CN(C(=O)c2ccc(S(C)(=O)=O)nc2)C[C@@H]1c1ccc(Cl)c(Cl)c1` (racemic) [Example 66, 6-{(SR)-1-[(3RS,4SR)-4-(3,4-Dichloro-phenyl)-1-(6-methanesulfonyl-pyridine-3-carbonyl)-pyrrolidin-3-yl]-ethoxy}-nicotinonitrile], with 3.8 nM; and `Cc1cc(C(=O)N2C[C@H]([C@H](C)Oc3ccc(C#N)cn3)[C@@H](c3ccc(Cl)c(Cl)c3)C2)c(Cl)nn1` (racemic) [Example 78, 6-{(SR)-1-[(3RS,4SR)-1-(3-Chloro-6-methyl-pyridazine-4-carbonyl)-4-(3,4-dichloro-phenyl)-pyrrolidin-3-yl]-ethoxy}-nicotinonitrile], with 27.2 nM.
As for `C[C@H](Oc1ccc(C(F)(F)F)cn1)[C@H]1CN(C(=O)c2ccnc(Cl)c2)C[C@@H]1c1ccc(Cl)c(Cl)c1` (racemic) [Example 82, (2-Chloro-pyridin-4-yl)-{(3SR,4RS)-3-(3,4-dichloro-phenyl)-4-[(SR)-1-(5-trifluoromethyl-pyridin-2-yloxy)-ethyl]-pyrrolidin-1-yl}-methanone], the Ki came to 3.2 nM.
To `Cc1nccn1-c1ccc(C(=O)N2C[C@H]([C@H](C)Oc3ccc(C#N)cn3)[C@@H](c3ccc(Cl)c(Cl)c3)C2)cc1` (racemic) [Example 64, 6-((SR)-1-{(3RS,4SR)-4-(3,4-Dichloro-phenyl)-1-[4-(2-methyl-imidazol-1-yl)-benzoyl]-pyrrolidin-3-yl}-ethoxy)-nicotinonitrile] belongs 35.7 nM.
Then `C[C@H](Oc1ccc(C#N)cn1)[C@H]1CN(C(=O)c2ccc(CN(C)C)nc2)C[C@@H]1c1ccc(Cl)c(Cl)c1` (racemic) [Example 43, 6-{(SR)-1-[(3RS,4SR)-4-(3,4-Dichloro-phenyl)-1-(6-dimethylaminomethyl-pyridine-3-carbonyl)-pyrrolidin-3-yl]-ethoxy}-nicotinonitrile], with 24.6 nM; and `C[C@@H](Oc1ccc(Cl)cn1)[C@@H]1CN(C(=O)c2ccc(CCN(C)C)cc2)C[C@H]1c1ccc(Cl)c(Cl)c1` [Example 44, [(3S,4R)-3-[(R)-1-(5-Chloro-pyridin-2-yloxy)-ethyl]-4-(3,4-dichloro-phenyl)-pyrrolidin-1-yl]-[4-(2-dimethylamino-ethyl)-phenyl]-methanone], with 11.8 nM; and `Cc1ncc(C(=O)N2C[C@H]([C@H](C)Oc3ccc(Cl)cn3)[C@@H](c3ccc(F)c(F)c3)C2)cn1` [Example 103, [(3R,4S)-3-[(S)-1-(5-Chloro-pyridin-2-yloxy)-ethyl]-4-(3,4-difluoro-phenyl)-pyrrolidin-1-yl]-(2-methyl-pyrimidin-5-yl)-methanone], with 25.7 nM.
To `C[C@@H](Oc1ccc(C(F)(F)F)cc1)[C@@H]1CN(C(=O)c2ccc(C#N)cc2)C[C@H]1c1ccc(Cl)c(Cl)c1` (racemic) [Example 2, 4-{(3RS,4SR)-3-(3,4-Dichloro-phenyl)-4-[(RS)-1-(4-trifluoromethyl-phenoxy)-ethyl]-pyrrolidine-1-carbonyl}-benzonitrile] belongs 35.5 nM; to `Cc1cc(C(=O)N2C[C@H]([C@H](C)Oc3ccc(C#N)cn3)[C@@H](c3ccc(Cl)c(Cl)c3)C2)cnn1` (racemic) [Example 89, 6-{(SR)-1-[(3RS,4SR)-4-(3,4-Dichloro-phenyl)-1-(6-methyl-pyridazine-4-carbonyl)-pyrrolidin-3-yl]-ethoxy}-nicotinonitrile], 9.1 nM; to `C[C@@H](Oc1ccc(Cl)cn1)[C@@H]1CN(C(=O)c2ccc(N)nc2)C[C@H]1c1ccc(Cl)c(Cl)c1` (racemic) [Example 20, (6-Amino-pyridin-3-yl)-[(3SR,4RS)-3-[(RS)-1-(5-chloro-pyridin-2-yloxy)-ethyl]-4-(3,4-dichloro-phenyl)-pyrrolidin-1-yl]-methanone], 17 nM.
For the molecule `COc1ncc(C(=O)N2C[C@@H]([C@@H](C)Oc3ccc(Cl)cn3)[C@H](c3ccc(Cl)c(Cl)c3)C2)cn1` (racemic) [Example 12, [(3SR,4RS)-3-[(RS)-1-(5-Chloro-pyridin-2-yloxy)-ethyl]-4-(3,4-dichloro-phenyl)-pyrrolidin-1-yl]-(2-methoxy-pyrimidin-5-yl)-methanone], the Ki turned out to be 19.4 nM.
Take `Cc1ccnc(C(=O)N2C[C@H]([C@H](C)Oc3ccc(C#N)cn3)[C@@H](c3ccc(Cl)c(Cl)c3)C2)c1` (racemic) [Example 92, 6-{(SR)-1-[(3RS,4SR)-4-(3,4-Dichloro-phenyl)-1-(4-methyl-pyridine-2-carbonyl)-pyrrolidin-3-yl]-ethoxy}-nicotinonitrile]: the Ki was determined as 33.8 nM.
To `Cc1cc(C(=O)N2C[C@H]([C@H](C)Oc3ccc(Cl)cn3)[C@@H](c3ccc(F)cc3)C2)cnn1` [Example 115, [(3R,4S)-3-[(S)-1-(5-Chloro-pyridin-2-yloxy)-ethyl]-4-(4-fluoro-phenyl)-pyrrolidin-1-yl]-(6-methyl-pyridazin-4-yl)-methanone] belongs 4 nM.
Regarding `Cc1ncc(C(=O)N2CC(c3ccc(Cl)c(Cl)c3)[C@@H]([C@H](C)Oc3ccc(Cl)cn3)C2)cn1` (single isomer, unassigned) [Example 40], the Ki amounted to 6.8 nM.
